Converted amounts (≈) assume the structure as drawn.
Assays:
[1] = system: Leishmania amazonensis; experiment: Antileishmanial activity against axenic amastigote form of patient derived Leishmania amazonensis MHOM/BR/77/LTB001 assessed as parasite growth inhibition incubated for 24 hrs; assay type: functional, organism-based; settings: MHOM/BR/77/LTB001, 24 h
[2] = system: Leishmania amazonensis; experiment: Antileishmanial activity against Leishmania amazonensis promastigotes assessed as parasite growth inhibition incubated for 24 hrs; assay type: functional, organism-based
[3] = system: Leishmania infantum; experiment: Antiprotozoal activity against Leishmania infantum intracellular amastigotes infected in human THP-1 derived macrophage cells assessed as reduction in parasite viability measured for 72 hrs by resazurin/alamar blue fluorometric assay; assay type: functional, organism-based; settings: THP-1, 72 h
[4] = system: Leishmania infantum; experiment: Antileishmanial activity against Leishmania infantum promastigotes assessed as reduction in cell viability incubated for 24 hrs by propidium iodide staining based flow cytometry assay; assay type: functional, organism-based
[5] = Inhibition of recombinant Leishmania mexicana Trypanothione reductase
[6] = system: Leishmania tropica; experiment: Antileishmanial activity against Leishmania tropica promastigote assessed as inhibition of parasite growth incubated for 72 hrs by MTT assay; assay type: functional, organism-based
[7] = system: Leishmania donovani; experiment: Antileishmanial activity against Leishmania donovani promastigotes assessed as reduction in parasite growth incubated for 48 hrs by MTT assay; assay type: functional, organism-based
[8] = system: Leishmania amazonensis; experiment: Antileishmanial activity against Leishmania amazonensis intracellular amastigotes assessed as parasite growth inhibition at 109 uM incubated for 96 hrs relative to control; assay type: functional; design: scale not given: the % may be the effect or the level left
[9] = system: Leishmania braziliensis; experiment: Antileishmanial activity against Leishmania braziliensis MHOM/Br/75/M2903 promastigotes assessed as reduction in parasite growth incubated for 72 hrs by MTT assay; assay type: functional, organism-based; settings: MHOM/Br/75/M2903, 72 h
[10] = system: Leishmania braziliensis; experiment: Antileishmanial activity against Leishmania braziliensis MHOM/Br/75/M2903 amastigotes assessed as reduction in parasite growth incubated for 72 hrs by MTT assay; assay type: functional, organism-based; settings: MHOM/Br/75/M2903, 72 h
[11] = Cytotoxicity against mouse Peritoneal macrophages assessed as reduction in cell viability incubated for 24 hrs by MTT assay; assay type: toxicity, cell-based, Peritoneal macrophage

SMILES: CC1=CC(=O)C[C@H]2[C@H]1CC[C@@H](C)C21C[C@H](c2ccoc2)OC1=O (stereo partly specified)
- IC50 [1]: 20 µg/mL (≈ 63.6 µM)
- IC50 [2]: 6.3 µg/mL (≈ 20 µM)

SMILES: CC[C@@]1(O)C(=O)OCc2c1cc1n(c2=O)Cc2c-1nc1ccccc1c2/C=N/OC(C)(C)C [GIMATECAN]
- IC50 [3]: 0.1 µM
- IC50 [4]: 1.73 µM

SMILES: O=C(NCc1ccc2ncccc2c1)c1cnn(-c2ncc3c(n2)-c2ccccc2CCC3)c1C1CC1
- IC50 [5]: 58 µM

SMILES: C[C@@H]1O[C@@H](OC[C@H]2O[C@@H](Oc3c(-c4ccc(O)c(O)c4)oc4cc(O)cc(O)c4c3=O)[C@H](O)[C@@H](O)[C@@H]2O)[C@H](O)[C@H](O)[C@H]1O [RUTIN]
- IC50 [6]: 91.2 µg/mL (≈ 149 µM)

SMILES: CC[C@H](CC[C@@H](C)[C@H]1CC[C@H]2[C@@H]3CC=C4C[C@@H](O)CC[C@]4(C)[C@H]3CC[C@]12C)C(C)C [BETA-SITOSTEROL]
- IC50 [7]: 17.7 µg/mL (≈ 42.7 µM)

SMILES: C=C(C)[C@@H]1CC[C@@]2(C)[C@H]1[C@H]1CC[C@@H]3[C@@]4(C)CC[C@H](O)C(C)(C)[C@@H]4[C@H](O)C[C@@]3(C)[C@]1(C)C[C@@H]2O
- Activity [8]: 80%

SMILES: Oc1ccc(/C=N\Nc2ccccc2)c(O)c1
- IC50 [9]: 7.3 µM
- IC50 [10]: 21.7 µM

SMILES: CC/C=C\C/C=C\CCC/C=C/C=C/C=C\CCCC(=O)O
- IC50 at 24 h [11]: 2 µM

— ChEMBL document CHEMBL5620368, “Molecular-level strategic goals and repressors in Leishmaniasis - Integrated data to accelerate target-based heterocyclic scaffolds” (Eur J Med Chem, 2023)
